US7153472B1, “Preservation and formulation of bioactive materials for storage and delivery in hydrophobic carriers” (priority 2000, dated 2006)

Assays:
[1] = Potency of Amphotericin after foam drying and storage; assay type: physicochemical
Experimental: Freeze-dried samples of Amphotericin B were rehydrated with 5 ml 40 wt % sucrose per vial. Then the solutions (5 ml) were transferred into 50 ml sterilized glass vials for future preservation by drying. Before drying, the vials were covered with gray butyl slotted rubber stoppers. The vials were dried inside a vacuum chamber. The vials were placed on the surface of a stainless steel shelf inside the chamber. Before the vacuum was applied the shelf temperature was decreased to 5 C. The hydrostatic pressure inside the chamber was decreased to 0.5 Torr. Under such conditions the suspension boiled for 30 min. The temperature of the shelf was then slowly (during 30 min) increased to 25 C. Visually, stable dry foams were formed inside the vials under these experimental conditions within 3 hours. After an additional 12 hours of drying at room temperature, the chamber was filled with the dry N2 gas and the rubber stoppers in a portion of the vials were pushed down. The vials were removed from the chamber and subsequently sealed with aluminum crimped seal. The samples were assayed right after drying and after 30 days of storage at 27.5 and 40 C. The results are shown in Table 1, together with the results obtained in the next experiment.
Another set of freeze-dried samples of Amphotericin B was rehydrated with 5 ml 40 wt % sucrose per vial. The solutions were then transferred into sterilized glass vials for future preservation by drying similar to that described above with additional drying at 45 C for additional 24 hours. After that, the chamber was filled again with the dry N2 gas, the rubber stoppers were pushed down and the vials were sealed. The samples were assayed right after drying and after 30 day of storage at 27.5 and 40 C.

[2] = Urokinase activity after foam drying and storage; assay type: biochemical
Experimental: Freeze-dried samples of Urokinase were rehydrated with 2 ml of 40 wt % sucrose. The solutions were then transferred to 20 ml sterilized glass vials for future preservation by drying. Before drying, the vials were covered with gray slotted rubber stoppers. The vials were dried inside a vacuum chamber. The vials were sitting on the surface of a stainless steel shelf inside the chamber. Before the vacuum was applied the shelf temperature was decreased to 5 C. Then the hydrostatic pressure inside the chamber was decreased to 0.5 Torr. Under such conditions, the suspension boiled for 30 min. […] Visually, under these experimental conditions, stable dry foams were formed inside the vials within 3 hours. After an additional 12 hours of drying at room temperature, the temperature was increased to 45 C for an additional 24 hours. After that the chamber was filled with dry N2 gas, the rubber stoppers were pushed down and the vials were sealed with aluminum crimp seals.
The samples were assayed right after drying and after 30 days of storage at 40 C. After drying the Urokinase, activity was 93% of the initial activity. This decrease was associated with the loss of Urokinase during transfer from initial vials to the vials at which the Urokinase was dried. After 30 days of storage at 40 C the activity was 90%. […]

[3] = aqueous 50% glycerol solution from Sigma Chemical Co., before dialysis; cited from earlier work
[4] = isocitrate dehydrogenase activity (NADP reduction at 340 nm) after preservation by foam drying; assay type: biochemical
Experimental: An aqueous 50% glycerol isocitrate dehydrogenase solution from Sigma Chemical Co. containing 59.4 units of activity per ml was dialyzed for 5 hours in 0.1 M TRIS HCl buffer (pH 7.4). The activity of the isocitrate dehydrogenase in the 0.1 M TRIS HCl solution after dialysis was 26±1.8 units per ml. The activity decrease was associated with a decrease in the enzyme concentration because of dilution during the dialysis.
A mixture (100 l) containing 50 l of 50% by weight sucrose solution and 50 l of the isocitrate dehydrogenase suspension in 0.1 M TRIS HCl buffer (pH 7.4) was placed in 1.5 ml plastic tubes and preserved by drying at room temperature. First, the samples were dried for 4 hours under low vacuum (0.2 atm). Second, the samples were boiled during 4 hours under high vacuum (<0.01 atm). During this step, a mechanically stable dry foam was formed in the tubes. Third, the samples were stored during 8 days over DRIERITE under vacuum at room temperature.
After 8 days, the samples were rehydrated with 500 l water. Rehydration of the samples containing dry foams was an easy process that was completed within several seconds. The reconstituted sample was assayed for activity by assaying ability to reduce NADP, measured spectrophotometrically at 340 nm. The reaction mix included: 2 ml 0.1 M TRIS HCl buffer, pH 7.4; 10 l of 0.5% by weight NADP+; 10 l of 10 mM MnSO4; 10 l of 50 mM 1-isocitrate; and 10 l of an isocitrate dehydrogenase solution.

In the case of `C[C@@H]1[C@H](O)[C@@H](C)/C=C/C=C/C=C/C=C/C=C/C=C/C=C/[C@H](O[C@@H]2O[C@H](C)[C@@H](O)[C@H](N)[C@@H]2O)C[C@@H]2O[C@](O)(C[C@@H](O)C[C@@H](O)[C@H](O)CC[C@@H](O)C[C@@H](O)CC(=O)O[C@H]1C)C[C@H](O)[C@H]2C(=O)O` [Amphotericin, Amphotericin B], the “Potency of Amphotericin (%)” value ([1]; Control (printed in column After drying)) is reported as 126%, the “Potency of Amphotericin (%) After 30 days at 27.5 C.” value ([1]; Td = 25 C) is reported as 114% and the “Potency of Amphotericin (%) After 30 days at 40 C.” value ([1]; Td = 25 C) is reported as 95%. The “Potency of Amphotericin (%) After drying” value ([1]; Td = 25 C) was 108%, the “Potency of Amphotericin (%) After 30 days at 27.5 C.” value ([1]; Td = 45 C) was 102% and the “Potency of Amphotericin (%) After 30 days at 40 C.” value ([1]; Td = 45 C) was 104%. The “Potency of Amphotericin (%) After drying” value ([1]; Td = 45 C) was 103%.

With Urokinase the “Urokinase activity, % of the initial activity” value ([2]; after 30 days of storage at 40 C) was 90% and the “Urokinase activity, % of the initial activity” value ([2]; right after drying (40 wt % sucrose foam, up to 45 C)) was 93%.

For isocitrate dehydrogenase, the “activity of isocitrate dehydrogenase solution” value [3] is given as 59.4 units of activity per ml, the “loss of activity during drying and subsequent storage” value ([4]; 8 days at room temperature) is given as “no loss of activity” and the activity after rehydration ([4]; dried with sucrose to foam, stored 8 days over DRIERITE under vacuum at room temperature, 100 l sample rehydrated with 500 l water) is given as 2.6±0.2 units/ml. The “activity of isocitrate dehydrogenase after dialysis” value ([4]; in 0.1 M TRIS HCl (pH 7.4) after 5 hours dialysis) was 26±1.8 units per ml.
